The values that follow come from BindingDB's records for doi:10.1021/jm801063n (University of Auckland, 2009).

A short description of the experiment: Inhibition of recombinant perforin-mediated lysis of human Jurkat T cells by 51Cr release assay.

Usually IC50 stands for the concentration that inhibits the measured activity by half. With `Cc1cc2c(c(=S)[nH]1)C(=O)O/C2=C\c1ccc(N(C)C)cc1` [(Z)-1-(4-(Dimethylamino)benzylidene)-6-methyl-4-thioxo-4,5-dihydrofuro[3,4-c]pyridin-3(1H)-one], the IC50 is over 20 µM.

As for `Cc1cc2c(c(=S)[nH]1)C(=O)O/C2=C\c1ccc(Cl)cc1` [(Z)-1-(4-Chlorobenzylidene)-6-methyl-4-thioxo-4,5-dihydrofuro[3,4-c]pyridin-3(1H)-one], the IC50 was over 20 µM.

`Cc1cc2c(c(=S)[nH]1)C(=O)O/C2=C\c1ccc(F)cc1` [(Z)-1-(4-Fluorobenzylidene)-6-methyl-4-thioxo-4,5-dihydrofuro[3,4-c]pyridin-3(1H)-one]: the IC50 is over 20 µM.

For `Cc1cc2c(c(=S)[nH]1)C(=O)O/C2=C\c1ncc[nH]1` [(Z)-1-((1H-Imidazol-2-yl)methylene)-6-methyl-4-thioxo-4,5-dihydrofuro[3,4-c]pyridin-3(1H)-one], the IC50 was over 20 µM.

In the case of `Cc1cc2c(c(=S)[nH]1)C(=O)O/C2=C\c1cc2ccccc2[nH]1` [(Z)-1-((1H-Indol-2-yl)methylene)-6-methyl-4-thioxo-4,5-dihydrofuro[3,4-c]pyridin-3(1H)-one], the IC50 stood at 1.3 µM.

For `Cc1cc2c(c(=S)[nH]1)C(=O)O/C2=C\c1c[nH]c2ccccc12` [(Z)-1-((1H-Indol-3-yl)methylene)-6-methyl-4-thioxo-4,5-dihydrofuro[3,4-c]pyridin-3(1H)-one], the IC50 is over 20 µM.

As for `Cc1cc2c(c(=S)[nH]1)C(=O)O/C2=C\c1cccc2cc[nH]c12` [(Z)-1-((1H-Indol-7-yl)methylene)-6-methyl-4-thioxo-4,5-dihydrofuro[3,4-c]pyridin-3(1H)-one], the IC50 stood at 4.1 µM.

In the case of `Cc1cc2c(c(=S)[nH]1)C(=O)O/C2=C\c1ccc[nH]1` [(Z)-1-((1H-Pyrrol-2-yl)methylene)-6-methyl-4-thioxo-4,5-dihydrofuro[3,4-c]pyridin-3(1H)-one], the IC50 was over 20 µM.

Regarding `Cc1cc2c(c(=O)[nH]1)C(=O)O/C2=C\c1ccc[nH]1` [(Z)-1-((1H-Pyrrol-2-yl)methylene)-6-methylfuro[3,4-c]pyridine-3,4(1H,5H)-dione], the IC50 is over 20 µM.

In the case of `COc1cccc2oc(/C=C3\OC(=O)c4c3cc(C)[nH]c4=S)cc12` [(Z)-1-((4-Methoxybenzofuran-2-yl)methylene)-6-methyl-4-thioxo-4,5-dihydrofuro[3,4-c]pyridin-3(1H)-one], the IC50 came to 6.7 µM.

Consider `Cc1cc2c(c(=S)[nH]1)C(=O)O/C2=C\c1cc2cc(OCc3ccccc3)ccc2[nH]1` [(Z)-1-((5-(Benzyloxy)-1H-indol-2-yl)methylene)-6-methyl-4-thioxo-4,5-dihydrofuro[3,4-c]pyridin-3(1H)-one], for which the IC50 was over 20 µM.

For the compound `Cc1cc2c(c(=S)[nH]1)C(=O)O/C2=C\c1csc2ccc(Br)cc12` [(Z)-1-((5-Bromobenzo[b]thiophen-3-yl)methylene)-6-methyl-4-thioxo-4,5-dihydrofuro[3,4-c]pyridin-3(1H)-one], the IC50 amounted to 7.5 µM.

Regarding `COc1ccc2[nH]c(/C=C3\OC(=O)c4c3cc(C)[nH]c4=S)cc2c1` [(Z)-1-((5-Methoxy-1H-indol-2-yl)methylene)-6-methyl-4-thioxo-4,5-dihydrofuro[3,4-c]pyridin-3(1H)-one], the IC50 came out at 4.6 µM.

For `COc1ccc2sc(/C=C3\OC(=O)c4c3cc(C)[nH]c4=S)cc2c1` [(Z)-1-((5-Methoxybenzo[b]thiophen-2-yl)methylene)-6-methyl-4-thioxo-4,5-dihydrofuro[3,4-c]pyridin-3(1H)-one], the IC50 was 13.1 µM.

On to `COc1ccc2scc(/C=C3\OC(=O)c4c3cc(C)[nH]c4=S)c2c1` [(Z)-1-((5-Methoxybenzo[b]thiophen-3-yl)methylene)-6-methyl-4-thioxo-4,5-dihydrofuro[3,4-c]pyridin-3(1H)-one], for which the IC50 came out at 5.1 µM.

`COc1ccc2oc(/C=C3\OC(=O)c4c3cc(C)[nH]c4=S)cc2c1` [(Z)-1-((5-Methoxybenzofuran-2-yl)methylene)-6-methyl-4-thioxo-4,5-dihydrofuro[3,4-c]pyridin-3(1H)-one]: the IC50 stood at 2.4 µM.

As for `COc1cc2cc(/C=C3\OC(=O)c4c3cc(C)[nH]c4=S)[nH]c2cc1OCc1ccccc1` [(Z)-1-((6-(Benzyloxy)-5-methoxy-1H-indol-2-yl)methylene)-6-methyl-4-thioxo-4,5-dihydrofuro[3,4-c]pyridin-3(1H)-one], the IC50 was over 20 µM.

With `COc1cc2cc(/C=C3\OC(=O)c4c3cc(C)[nH]c4=S)oc2cc1OCc1ccccc1` [(Z)-1-((6-(Benzyloxy)-5-methoxybenzofuran-2-yl)methylene)-6-methyl-4-thioxo-4,5-dihydrofuro[3,4-c]pyridin-3(1H)-one], the IC50 was 5.1 µM.

Turning to `COc1ccc2cc(/C=C3\OC(=O)c4c3cc(C)[nH]c4=S)[nH]c2c1` [(Z)-1-((6-Methoxy-1H-indol-2-yl)methylene)-6-methyl-4-thioxo-4,5-dihydrofuro[3,4-c]pyridin-3(1H)-one], the IC50 came out at 3.1 µM.

On to `COc1ccc2cc(/C=C3\OC(=O)c4c3cc(C)[nH]c4=S)sc2c1` [(Z)-1-((6-Methoxybenzo[b]thiophen-2-yl)methylene)-6-methyl-4-thioxo-4,5-dihydrofuro[3,4-c]pyridin-3(1H)-one], for which the IC50 worked out at 5.4 µM.

For `COc1ccc2c(/C=C3\OC(=O)c4c3cc(C)[nH]c4=S)csc2c1` [(Z)-1-((6-Methoxybenzo[b]thiophen-3-yl)methylene)-6-methyl-4-thioxo-4,5-dihydrofuro[3,4-c]pyridin-3(1H)-one], the concentration for half-maximal inhibition (IC50) was determined as 4.7 µM.

`COc1ccc2cc(/C=C3\OC(=O)c4c3cc(C)[nH]c4=S)oc2c1` [(Z)-1-((6-Methoxybenzofuran-2-yl)methylene)-6-methyl-4-thioxo-4,5-dihydrofuro[3,4-c]pyridin-3(1H)-one]: the IC50 was found to be 7.2 µM.

Consider `COc1cccc2cc(/C=C3\OC(=O)c4c3cc(C)[nH]c4=S)oc12` [(Z)-1-((7-Methoxybenzofuran-2-yl)methylene)-6-methyl-4-thioxo-4,5-dihydrofuro[3,4-c]pyridin-3(1H)-one], for which the half-maximal inhibitory concentration (IC50) is 3 µM.

Consider `Cc1cc2c(c(=S)[nH]1)C(=O)O/C2=C\c1cc2ccccc2s1` [(Z)-1-(Benzo[b]thiophen-2-ylmethylene)-6-methyl-4-thioxo-4,5-dihydrofuro[3,4-c]pyridin-3(1H)-one], for which the IC50 was determined as 9.5 µM.

For `Cc1cc2c(c(=O)[nH]1)C(=O)O/C2=C\c1cc2ccccc2s1` [(Z)-1-(Benzo[b]thiophen-2-ylmethylene)-6-methylfuro[3,4-c]pyridine-3,4(1H,5H)-dione], the IC50 came to 4.6 µM.

As to `Cc1cc2c(c(=O)[nH]1)C(=O)O/C2=C\c1csc2ccccc12` [(Z)-1-(Benzo[b]thiophen-3-ylmethylene)-6-methylfuro[3,4-c]pyridine-3,4(1H,5H)-dione], the IC50 stood at 8.5 µM.

As to `Cc1cc2c(c(=S)[nH]1)C(=O)O/C2=C\c1cc2ccccc2o1` [(Z)-1-(Benzofuran-2-ylmethylene)-6-methyl-4-thioxo-4,5-dihydrofuro[3,4-c]pyridin-3(1H)-one], the IC50 came to 8.2 µM.

Consider `Cc1cc2c(c(=S)[nH]1)C(=O)O/C2=C\c1coc2ccccc12` [(Z)-1-(Benzofuran-3-ylmethylene)-6-methyl-4-thioxo-4,5-dihydrofuro[3,4-c]pyridin-3(1H)-one], for which the IC50 was over 20 µM.
